Test results reported in US20050281764A1, “Use of EGF-R protein tyrosine kinase inhibitors for preventing photoaging in human skin” (priority 2000, published 2005).

How the values were obtained:
cJUN protein = cJUN protein induced by UV radiation in skin of human volunteers (FIG. 3); type: in vivo; conditions: 5% genistein in DMSO, topical, occluded 24 hours; 2 MEDs UV; biopsy 8 hours after exposure; vs vehicle-treated skin
Experimental: The same procedure as described above was repeated, except that biopsy for cJUN protein was taken 8 hours after exposure to the UV radiation. […] The inset in the figure is a Western blot showing the amount of cJUN protein in genistein-treated versus vehicle-treated skin.

MMP-1 mRNA = MMP-1 mRNA induced by UV radiation in skin of human volunteers (FIG. 4); type: in vivo; conditions: 5% genistein in DMSO, topical, occluded 24 hours; 2 MEDs UV; biopsy 24 hours after exposure; vs vehicle-treated skin
Experimental: The same procedure as described above was repeated, except that biopsy for MMP-1 mRNA was taken 24 hours after exposure to the UV radiation.

JNK = JNK activation in UV-irradiated skin of human volunteers (FIG. 2); conditions: occluded 24 hours
Experimental: Human volunteers, each having given informed consent, were used to determine the effect, if any, of pretreatment of their skin with an EGF-R PTK inhibitor prior to exposure of the skin to UV radiation. […] On the hip or buttock skin of volunteers, the test solution was placed (or on adjacent areas if both solutions were used), and the areas occluded for 24 hours; thereafter, the area was biopsied, or it was exposed to 2 MEDs of UV radiation and biopsied after exposure.
After the volunteers' skin was occuled for 24 hours, it was biopsied, and other areas were exposed to 2 MEDs of UV radiation and then biopsied about 4 hours thereafter.

[1] = tested on: IRAK (IL-1 Receptor-Activated Kinase); experiment: IRAK phosphorylation/activity in cells in culture; type: cell-based
Text: IRAK (IL-1 Receptor-Activated Kinase) is a protein […] kinase (enzyme) that binds to and is activated by IL-1R (the IL-1 receptor) and in turn activates a pathway that leads to induction of c-JUN kinase, MMPs, and thus collagen degradation.

c-JUN kinase = c-JUN kinase activity (phosphorylation of GST-c-jun) in cultured human keratinocytes after UV; type: cell-based

| Structure (SMILES) | increase in the amount of cJUN protein after UV exposure (cJUN protein) | increase in MMP-1 mRNA induced by UV (MMP-1 mRNA) | skin penetration of the topical solution (JNK; 5% genistein in DMSO on human hip or buttock skin, inferred from the JNK results) | JNK activation (JNK; 5% genistein in DMSO, topical, 2 MEDs UV, biopsy about 4 hours after exposure) | phosphorylated IRAK ([1]; PD 153035-treated cells exposed to IL-1) | IRAK activity ([1]; cells in culture treated with PD 153035 alone, no challenge) | phosphorylated IRAK ([1]; cells treated with PD 153035 and then challenged with UV or EGF) | phospho-GST-c-jun protein (c-JUN kinase; cultured human keratinocytes not exposed to UV) | phospho-GST-c-jun protein levels (c-JUN kinase; cultured human keratinocytes pretreated, then exposed to UV radiation) |
| --- | --- | --- | --- | --- | --- | --- | --- | --- | --- |
| O=c1c(-c2ccc(O)cc2)coc2cc(O)cc(O)c12 [genistein, 4′,5,7-trihydroxyisoflavone] | significantly inhibited | significantly inhibited | able to penetrate the skin | significantly reduced the amount of JNK activated | – | – | – | – | – |
| COc1cc2ncnc(Nc3cccc(Br)c3)c2cc1OC [PD 153035] | – | – | – | – | no reduction in phosphorylated IRAK | minimal baseline amount of IRAK activity | clearly had less phosphorylated IRAK | baseline amount of phospho-GST-c-jun protein | comparable with the baseline levels |
